Each structure is given as a SMILES string. Activity calls are given as the source filed them.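 How the source made its calls: active means compounds giving half or more protection of infected cells from virus-caused growth loss, again on retest; inactive means the rest.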

Broadly, the EC50 is the midpoint of the concentration-response curve. For orientation: IC50 means the concentration that gives 50% inhibition.

The test system of this experiment is CEM cells HIV-1 protection, formazan growth assay. Put plainly: NCI AIDS Antiviral Assay. Conditions: for IC50: measured here: growth of uninfected CEM cells. A digest of the protocol: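 Steps: treat uninfected and HIV-1-infected human CEM cells at five drug levels; quantify growth by soluble formazan; retest any compound reaching 50% protection; classify actives from the retest.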

As for `O=C1OC(=O)N2CSCC12` (stereo unspecified), the EC50 was over 1580 µM and the IC50 is over 1580 µM.

Turning to `O=c1[nH]c2cc([N+](=O)[O-])ccc2nc1/C(=N/Nc1ccccc1)C(O)c1ccco1` (stereo unspecified), the EC50 is over 234 µM and the IC50 is 89.1 µM. For `C=C(C)C1Cc2c(cc(O)c3c(=O)c4c(oc23)C(O)Oc2cc(OC)c(OC)cc2-4)O1` (stereo unspecified) the same measures were over 200 µM and 72.4 µM. The matching figures for `O=C1CCc2c(Cl)sc(Cl)c21`: over 331 µM and 151 µM. For `CCC1c2c(cc(=O)[nH]c2O)C(=O)N1Cc1ccccc1` (stereo unspecified) the same measures were over 398 µM and over 398 µM. Regarding `Cc1ccc(C(=O)N2CCN(C(=O)c3ccc(C)cc3)c3ccccc32)cc1`, the EC50 is over 10.2 µM and the IC50 amounted to 1.82 µM. Regarding `COc1ccc(/C=C/C(=O)c2ccc(OC(=O)/C=C/c3ccccc3)cc2)cc1`, the EC50 was over 200 µM and the IC50 turned out to be 9.12 µM. In the case of `CC(=O)NC(CCCCNC(=O)OCc1ccccc1)C(=O)O` (stereo unspecified), the EC50 was over 776 µM and the IC50 is over 776 µM. With `c1cn(C23C4C5C6C4C2C6C53)cn1` (stereo unspecified), the EC50 is over 200 µM and the IC50 is over 200 µM. In the case of `COc1nc(=O)cc(N)n1C1OC(CO)C(O)C1O` (stereo unspecified), the EC50 was over 912 µM and the IC50 is over 912 µM.

`O=C(O)c1cc2ccc(O)c(O)c2cn1`: the EC50 is over 56.2 µM and the IC50 was determined as 2.04 µM. Consider `CN(C)CC1CCCC/C1=N/OC(=O)c1ccc(Cl)cc1` (stereo unspecified), for which the result was inactive. Consider `Cc1cn(C2CCC3(CO)CC23)c(=O)[nH]c1=O` (stereo unspecified), for which the EC50 is over 50.1 µM and the IC50 was over 50.1 µM.

As for `N#CN=C1N=S(=O)(c2ccccc2)c2ccccc21` (stereo unspecified), the EC50 is over 186 µM and the IC50 is 162 µM. Turning to `CN1CCN=C1c1ccc(NC(=O)Nc2ccc(NC(=O)Nc3ccc(C4=NCCN4C)cc3)cc2)cc1`, the EC50 is over 200 µM and the IC50 was 38.9 µM.

Take `CC(C)[Si](OC1=C(C(=O)N(C)c2ccccc2Cl)CCCC1)(C(C)C)C(C)C`: the EC50 is over 200 µM and the concentration for half-maximal inhibition (IC50) is 16.6 µM. In the case of `CCOC(=O)NNC(=O)NCCNC(=O)NNC(=O)OCC`, the EC50 was over 200 µM and the IC50 is over 200 µM. On to `CCN(CC)C1=CC(=O)c2nc(C)c(C)nc2C1=O`, for which the result was inactive. With `Cc1nc(SCC(=O)Nc2ccc(Cl)cc2)c2sc(=S)n(-c3ccccc3)c2n1`, the EC50 was over 200 µM and the IC50 is over 200 µM.

Take `Cc1cc(CO)c(O)c(CN(CCO)CCO)c1`: the EC50 is over 200 µM and the IC50 was 20.4 µM. The matching figures for `CCCc1ccc(N=Cc2cc(OC)c(OC)c(OC)c2)cc1`: over 31.6 µM and over 31.6 µM. With `COC(=O)c1c(-c2ccccc2)c2sc3ccccc3n2c1N`, the EC50 is over 200 µM and the IC50 was over 200 µM. As for `CCOC(=O)c1c[nH]c(C(=O)OCC)c1-c1cccn1-c1ccccc1`, the EC50 is over 200 µM and the IC50 is 24.5 µM. In the case of `O=c1c2cc(S(=O)(=O)Nc3ccccc3)ccc2ncn1NS(=O)(=O)c1ccccc1`, the EC50 was over 100 µM and the IC50 is 58.9 µM.

As for `COc1cc2c(cc1OC)C1CC(OC(=O)c3ccccc3)(c3nccc4cc(OC)c(OC)cc34)CCN1CC2` (stereo unspecified), the outcome was inactive. Turning to `COc1ccc2nc3cc(Cl)ccc3c(NCCNC(=O)Cn3c(=O)n(C)c(=O)c4c3nc3c(c(=O)n(C)c(=O)n3C)[n+]4[O-])c2c1`, the EC50 is over 100 µM and the IC50 came to 39.8 µM. As to `COc1cc2c(cc1OC)C(=O)/C(=C/c1ccc([N+](=O)[O-])cc1)CC2`, the EC50 is 155 µM and the IC50 is over 200 µM. On to `Cc1ccc(C2=C(c3ccccc3)C(=O)C(c3ccccc3)=C2c2ccc(C)cc2)cc1`, for which the EC50 is over 87.1 µM and the IC50 is over 87.1 µM. Turning to `COc1ccc(CC2=CC(=O)C(=O)C=C2C)cc1`, the EC50 was over 56.2 µM and the IC50 was found to be 30.2 µM. For the compound `Fc1ccc(N=C/C=C/Nc2ccc(F)cc2)cc1`, the result was inactive.
